Like-named read-outs stand apart in the source and are kept apart here. Blank lines part the entries; values can stand above or below the molecule they belong to.
Experiments:
[1] = system: synthesis of the lipoxygenase product 5-HETE in rat polymorphonuclear leukocytes; assay: Inhibition of 5-HETE synthesis by rat glycogen elicited polymorphonuclear leukocytes; type: cell-based, rat (female Wistar)
Procedure: The assay of this Example measures the ability of the compounds of the invention to inhibit the synthesis of 5-HETE by rat glycogen elicited polymorphonuclear leukocytes.
(§1) The assay is carried out as follows:
(§2) Peritoneal PMN are obtained from female Wistar rats (150-250 g) that received an i.p. injection of 6% glycogen (10 ml). After 24 hours, rats are killed by CO2 asphyxiation and peritoneal cells are harvested by peritoneal lavage using Ca^++ and Mg^++ free Hanks' balanced salt solution (HBSS). The peritoneal exudate is centrifuged at 400 g for 10 minutes. After centrifugation, the lavaged fluid is removed and the cell pellet is resuspended in HBSS containing Ca^++ and Mg^++ and 10 mM L-cysteine at a concentration of 2×10^7 cells/ml. To 1 ml portions of cell suspension, test drugs or vehicle are added and incubated at 37° C. for 10 minutes. Following this preincubation, the calcium ionophore (10 μM), A23187, is added together with 0.5 μCi [14 C] arachidonic acid and further incubated for 10 minutes. The reaction is stopped by the addition of ice cold water (3 ml) and acidifying to pH 3.5. […] After chromatography, the areas associated with 5-HETE standard are identified by autoradiography, cut out and quantitated by liquid scintillation.
The compounds of this invention are tested in this assay at a level of 10 μm. […] Some results are expressed as an IC50 value.

[2] = system: ovalbumin induced bronchospasm mediated by endogenous products of lipoxygenase oxidation of arachidonic acid; assay: Inhibition of ovalbumin induced bronchospasm in guinea pigs by endogenous mediators of bronchoconstriction; type: in vivo, guinea pig (male Hartley); settings: 10 minutes before ovalbumin challenge; for ED50: Cavia porcellus
Procedure: The assay of this Example measures the in vivo ability of the compounds of the invention to inhibit the bronchospasm induced in guinea pigs by endogenous mediators of the bronchoconstriction.
as §1
Male Hartley strain guinea pigs weighing 250-350 g are sensitized to chicken ovalbumin (OA) (10 mg i.p.) on days 1 and 3 and used starting on day 26. The animals are anesthetized with pentobarbital sodium (50 mg/kg, i.p.), bilateral vagotomy is performed, and the jugular vein is cannulated for injection of drugs and the carotid artery for monitoring blood pressure. The trachea is cannulated for artificial ventilation by miniature Starling pump and for indirect measurement of respiratory volume changes. Succinylcholine (2 mg/kg, i.v.) is administered to arrest spontaneous respiration. A cyclooxygenase inhibitor, indomethacin (10 mg/kg in tris buffer, i.v. at 9 min.) is administered to shunt arachidonic metabolism to lipoxygenase pathways. One minute later, chlorpheniramine (1.0 mg/kg in saline, i.v.) is given to attenuate the histaminic component of anaphylactic bronchoconstriction. Test drugs (dissolved in propylene glycol, polyethylene glycol or saline) are administered either intraduodenally, perorally or by aerosol at 2 or 10 minutes before antigen challenge. Anaphylactic bronchoconstriction is induced by administration by breaths of aerosolized OA (1%) or by intravenous administration of 0.1-0.3 mg/kg OA in saline. Control animals receive solvent (2 ml/kg i.d. or appropriate aerosol) in place of drug.
(§3) Respiratory volume changes are determined by a calibrated piston whose travel is recorded, via a linear transducer, on a Beckman Dynograph recorder. Maximal bronchoconstrictor volume is determined by clamping off the trachea at the end of the experiment. Overflow volumes at minutes 1, 3 and 5 are obtained from the recorded charts.
Area under the volume overflow curve (AUC) is estimated, using the overflow values at 1, 3 and 5 minutes, and expressed as a percentage of the maximal overflow AUC (equation 1): [formula] Drug effects are reported as percent inhibition of % max AUC values obtained from appropriate control animals (equation 2): [formula] Student's t-test for unpaired data is used to determine statistical significance. Dose response curves are generated and ED50 doses are interpolated from the regression lines.

[3] = system: LTD4 induced bronchoconstriction; assay: Inhibition of bronchospasm induced in guinea pigs by exogenously administered leukotrienes C4 and/or D4; type: in vivo, guinea pig (male Hartley); settings: 10 minutes before induction of bronchospasm; for ED50: Cavia porcellus, read-out: IC50 (the source's name)
Procedure: The assay of this Example measures the in vivo ability of the compounds of the invention to inhibit the bronchospasm induced in guinea pigs by the exogenously administered leukotrienes C4 and/or D4.
This assay is carried out as follows:
Male Hartley strain guinea pigs (350-600 g) are anesthetized with pentobarbital sodium (50 mg/kg, i.p.). The jugular vein is cannulated for injection of drugs and the carotid artery for monitoring blood pressure. The trachea is cannulated for artificial ventilation by a miniature Starling pump and for indirect measurement of respiratory volume changes. The animals are then pretreated with succinylcholine (2 mg/kg i.v.) and indomethacin (10 mg/kg i.v. in trizma 8.3 buffer, 9 minutes prior to leukotriene challenge). Submaximal bronchoconstrictor responses are established in control animals by varying the dose-levels of leukotriene. Intravenous dose-levels for LTC4 range from 0.4 to 0.6 μg/kg and for LTD4 the range is from 0.3 to 0.5 μg/kg. The aerosol bronchoprovocation dose for LTC4 is generated from 1.6 μM solution and for LTD4 from a 2.0 μM solution.
Test drugs (dissolved in a solvent such as propylene glycol, polyethylene glycol 400 or saline) are administered either intraduodenally, by aerosol or perorally at 2 or 10 minutes before induction of bronchospasm by administration of either LTC4 or LTD4 at the predetermined dose-levels. Aerosols of soluble drugs or leukotrienes are produced in-line for 10 seconds only by actuation of an ultrasonic nebulizer (Monaghan). Aerosolized drug dosage is expressed in terms of solution concentration and by a fixed aerosol exposure time (approximately 10 seconds). Control animals receive solvent (2 ml/kg i.d. or appropriate aerosol) in place of drug.
as §3, with “at” for “at minutes”, “5 minutes” for “5”
Area under the volume overflow curve (AUC) is estimated, using the overflow values at 1, 3 and 5 minutes, and expressed as a percentage of the maximal overflow AUC (equation 1): [formula] Drug effects are reported as percent inhibition of % max AUC values obtained from appropriate control animals (equation 2): [formula]
Student's t-test for unpaired data is used to determine statistical significance (p<0.05). IC50 values can also be determined by inverse prediction from linear regression lines through points between 10 and 90% inhibition.

[4] = system: carrageenan paw edema (acute inflammatory response); assay: Rat carrageenan paw edema assay; type: in vivo, rat (male Sprague-Dawley); settings: for % Inhibition at 100 mg/kg (peroral): 1 hour prior to carrageenan, edema at 3 hours; for ED50: Rattus norvegicus, po, read-out: Oral ED50 (95% C.L.) mg/kg
Procedure: The compounds of the invention are further tested in the rat carrageenan paw edema assay to determine their ability to inhibit the acute inflammatory response. This assay is carried out as follows: 140-180 gm male Sprague-Dawley rats, in groups of 6 animals are injected subcutaneously in the right paw with 0.1 ml of 1% carrageenan at zero time. Mercury plethysmographic readings (ml) of the paw are made at zero time and 3 hours later. Test compounds are suspended or dissolved in 0.5% methylcellulose and given perorally 1 hour prior to carrageenan administration. The increase in paw volume (edema in ml.) produced by the carrageenan is measured. […] Unpaired Student's t-test is used to determine statistical significance.

[5] = system: synthesis of the cyclooxygenase product PGE2 in rat polymorphonuclear leukocytes; assay: Inhibition of synthesis of the cyclooxygenase oxidation product PGE2 (procedure of Example 5); type: cell-based, rat (female Wistar); settings: tested at 10 μm
Procedure: as §2, with “3.5. Lipoxygenase products are then extracted twice into diethyl ether.” for “3.5.”, “scintillation. […]” for “scintillation.”
In this assay, the procedure of Example 5 is carried out as described. […] After chromatography, the areas associated with the PGE2 standard are identified by autoradiography, cut out and quantitated by liquid scintillation techniques.
The results are calculated as in Example 5.

[6] = 25 mg/kg perorally administered

- IC50 ([1]; Leukocyte, rat PMN): 10.5 µM
Compound: CONC(=O)Cc1cccc(OCc2ccc3ccccc3n2)c1 [Example 1, O-methyl-3-[(2-quinolinyl)methoxy]benzeneaceto hydroxamate]
- % Inhibition of Max AUC ([2]; 25 mg/kg intraduodenal): 56.0%
- % Inhibition of Max AUC [2, 6]: 82.8%
- ED50 ([2]; po, perorally administered): 2.5 mg/kg
- ED50 ([2]; intraduodenal): 7.3 mg/kg
- % Inhibition ([3]; 25 mg/kg intraduodenally): 90.6%
- % Inhibition ([3]; 25 mg/kg perorally): 86.3%
- ED50 ([3]; po, perorally administered): 5.9 mg/kg
- ED50 ([3]; intraduodenally administered): 1.8 mg/kg
- % Inhibition at 100 mg/kg (peroral) [4]: 50%

Compound: CONC(=O)Cc1cccc(OCc2nc3ccccc3n2C)c1 [Example 2D, O-methyl-3-[1-methyl(2-benzimidazoyl)methoxy]benzoaceto hydroxamate]
- >50% Inhibition at 10 μm [5]: + (those compounds having an inhibition of >50% are designated by a "+")
- % Inhibition at 100 mg/kg (peroral) [4]: 48%

Compound: CC(=O)Oc1ccccc1C(=O)O [Aspirin, reference compound]
- ED50 [4]: 145 mg/kg

Compound: O=C(NO)c1cccc(OCc2ccc3ccccc3n2)c1 [Example 4A, 3-[(2-quinolinyl)methoxy]benzoic hydroxamic acid]
- % Inhibition ([3]; 25 mg/kg intraduodenally): 32.8%

Compound: COc1ccc2c(c1)c(CC(=O)O)c(C)n2C(=O)c1ccc(Cl)cc1 [Indomethacin, reference compound]
- ED50 [4]: 3.7 mg/kg

Compound: O=C(NOCc1ccccc1)c1cccc(OCc2ccc3ccccc3n2)c1 [Example 2B, O-benzyl-3-[(2-quinolinyl)methoxy]benzoic hydroxamate]
- >50% Inhibitory at 10 μm ([1]; tested at 10 μm): + (those compounds having an inhibition of >50% are designated by a "+")
- >50% Inhibition at 10 μm [5]: + (those compounds having an inhibition of >50% are designated by a "+")
- % Inhibition ([3]; 25 mg/kg intraduodenally): 69.4%
- % Inhibition at 100 mg/kg (peroral) [4]: 42%

Compound: O=C(Cc1cccc(OCc2ccc3ccccc3n2)c1)NO [Example 3, 3-[(2-Quinolinyl)methoxy]benzeneaceto hydroxamic acid]
- % Inhibition ([3]; 25 mg/kg intraduodenally): 10%

Compound: O=C(Cc1cccc(OCc2ccc3ccccc3n2)c1)NOCc1ccccc1 [Example 2C, O-benzyl-3-[(2-quinolinyl)methoxy]benzeneaceto hydroxamate]
- % Inhibition at 100 mg/kg (peroral) [4]: 37%

Compound: CONC(=O)c1cccc(OCc2ccc3ccccc3n2)c1 [Example 2A, O-methyl-3-[(2-quinolinyl)methoxy]benzoic hydroxyamate]
- % Inhibition of Max AUC ([2]; 25 mg/kg intraduodenal): 76.6%
- % Inhibition of Max AUC [2, 6]: -1.5%
- % Inhibition ([3]; 25 mg/kg intraduodenally): 92.8%
- % Inhibition ([3]; 25 mg/kg perorally): 72.4%
- ED50 ([3]; po, perorally administered): 13.1 mg/kg
- ED50 ([3]; intraduodenally administered): 3.16 mg/kg
- % Inhibition at 100 mg/kg (peroral) [4]: 32%

Compound: CONC(=O)Cc1cccc(OCc2nc3ccccc3s2)c1 [Example 2E, O-methyl-3-[(2-benzthiazoyl)methoxy]benzoaceto hydroxamate]
- % Inhibition at 100 mg/kg (peroral) [4]: 38%
